From patent US10968196B2, “Substituted β-lapachones for treating cancer” (University of Pittsburgh—Of the Commonwealth System of …, priority 2015, dated 2021)
Values joined by “and” are separate entries in the source; they are usually repeats but may differ in a detail not shown here. Equal values may be shown once.

Assays:
Type in all cases: cell-based
[1] = test system: A549 cells; experiment: Mitochondria morphology by transmission electron microscopy; conditions: A549, 6 μM, 16 h, electron microscopy (FIG. 4C)
Procedure: (4A) A549 cells were treated with XJB-OMe, 3-hydroxy-β-lapachone (14), or XJB-lapachone (18) at 6 μM for 16 h. The generation of ROS was determined by staining cells with MitoSox and DCFHDA. The fluorescence intensity was measured by flow cytometry. Data represents the mean±S.D. of triplicates. (4B) A549 cells were treated as described in A, and the oxygen consumption rate was determined by a Seahorse extracellular flux analyzer. […] (4C) A549 cells were treated as described in A, and mitochondria morphology was examined by electron microscopy. Representative images are shown. (4D) A549 cells were treated as described above. The expression of the autophagy marker LC3 was examined by western blot. β-actin was used as a loading control. Representative images are shown.
Microscopy: For vacuole imaging, A549 cells were plated in 12-well plate, treated with compounds and the phase contrast images were captured using a Nikon Eclipse TS100 inverted microscope. For transmission electron microscopy analysis, A549 cells cultured in 6-well plate were fixed with 2.5% glutaraldehyde (Sigma-Aldrich) in PBS for 1 h at room temperature, and post-fixed for 1 h at 4° C. in 1% OsO4 with 1% K3Fe(CN)6. After dehydration and embedding, ultrathin (70 nm) sections were cut and mounted onto copper grids. […]

[2] = test system: MDA-MB-231 rho0 cells; experiment: Celltiter-blue cell viability in rho0 cells; conditions: MDA-MB-231 rho0 cells (mtDNA depleted), increasing concentrations, 24 h (FIG. 8)
Procedure: MDA-MB-231 parental and rho0 cells (established by long-term culture of parental MDA-MB-231 cells in the presence of 50 ng/ml ethidium bromide) were treated with increasing concentrations of XJB-lapachone for 24 h. Cell viability was determined by Celltiter-blue.

[3] = test system: A549 lung cancer cells; experiment: Cell growth/death assay (4 h exposure, wash-out, 3 days drug free); conditions: A549, 10 μM for 4 h, washed, 3 days drug free media (FIG. 3C)
Procedure: (3A) A549 non-small cell lung cancer cells were treated with XJB-OMe, 3-hydroxy-β-lapachone (14), or XJB-lapachone (18) at indicated concentrations for 24 h. Cell viability was determined by a CellTiter-Blue assay. Data represents the mean±SEM. (3B) PEO1 ovarian cancer cells, MDA-MB-231 breast cancer cells, and 983B melanoma cells were treated with XJB-lapachone (18) at indicated concentrations for 24 h. Cell viability was determined by a CellTiter-Blue assay. Data represents the mean±SEM. (3C) Equal numbers of A549 and IMR90 lung fibroblast cells were treated with 10 μM XJB-lapachone (18) for 4 h. XJB-lapachone was then washed away and cells were incubated in drug free media for 3 days. Cell viability was determined by a CellTiter-Blue assay. (3D) A549 cells were treated with XJB-OMe, 3-hydroxy-β-lapachone (14), or XJB-lapachone (18) at 6 μM concentrations for 20 h. […] Apoptotic and necrotic cell death were determined by Annexin V and PI staining. […]
Cell viability and apoptosis assays: Cell viability was determined using a CellTiter-Blue Cell Viability Assay (Promega, Madison, Wis.). The survival fractions were calculated after setting untreated control cells at 100%. An FITC Annexin V Apoptosis Detection Kit (BD PharMingen, San Diego, Calif.) was used to quantify apoptotic cells and necrotic cells, according to the manufacturer's instructions. […]

[4] = test system: MDA-MB-231 triple negative breast cancer cells (NQO1 deficient); experiment: Mitochondrial ROS generation by MitoSox, flow cytometry
Procedure: Determination of ROS generation: To measure intracellular generation of ROS, cells were incubated with 5 μM DCF-DA (Sigma) for 20 min at 37° C. after drug exposure. To measure mitochondrial generated ROS, cells were incubated with 5 μM of MitoSox (Invitrogen) for 20 min at 37° C. After wash with PBS, cells were trypsinized and suspended in HBSS containing 1% BSA. The fluorescence intensity of DCF and MitoSox were analyzed using an Accuri C6 flow cytometer (BD Accuri Cytometers, Ann Arbor, Mich.).
A549 non-small cell lung cancer cells (high NQO1) and MDA-MB-231 triple negative breast cancer cells (NQO1 deficient) were treated as indicated in FIG. 6. Mitochondrial ROS generation was determined by MitoSox followed by flow cytometry, essentially as described above.
Mitochondrial ROS generation was determined by MitoSox followed by flow cytometry. Left-shift of peak indicates decrease of ROS and right-shift of peak indicates increase of ROS.

[5] = test system: 983B melanoma cells; experiment: CellTiter-Blue cell viability assay, 24 h treatment; conditions: 983B cells, indicated concentrations, 24 h (FIG. 3B)
Procedure: (§1) (3A) A549 non-small cell lung cancer cells were treated with XJB-OMe, 3-hydroxy-β-lapachone (14), or XJB-lapachone (18) at indicated concentrations for 24 h. Cell viability was determined by a CellTiter-Blue assay. Data represents the mean±SEM. (3B) PEO1 ovarian cancer cells, MDA-MB-231 breast cancer cells, and 983B melanoma cells were treated with XJB-lapachone (18) at indicated concentrations for 24 h. Cell viability was determined by a CellTiter-Blue assay. Data represents the mean±SEM. (3C) Equal numbers of A549 and IMR90 lung fibroblast cells were treated with 10 μM XJB-lapachone (18) for 4 h. XJB-lapachone was then washed away and cells were incubated in drug free media for 3 days. Cell viability was determined by a CellTiter-Blue assay. (3D) A549 cells were treated with XJB-OMe, 3-hydroxy-β-lapachone (14), or XJB-lapachone (18) at 6 μM concentrations for 20 h. The formation of vacuoles was examined by phase contrast microscopy. Representative images are shown. (3E) A549 cells were treated as described above. Apoptotic and necrotic cell death were determined by Annexin V and PI staining. Representative images are shown.
(§2) Cell culture: A549 non-small cell lung cancer cells and MDA-MB-231 breast carcinoma cells were obtained from American Type Culture Collection (ATCC). Ovarian cancer cells PEO1 were kindly provided by Dr. Karyn J. Hansen (Magee-Womens Hospital of UPMC). 983B melanoma cells were kindly provided by Dr. Stergios J. Moschos (University of North Carolina). IMR90 normal lung fibroblast cells were kindly provided by Dr. Christopher Bakkenist (University of Pittsburgh Cancer Institute). Cells were cultured in either RPMI 1640 or DMEM media supplemented with 10% heat-inactivated fetal calf serum and 1% penicillin-streptomycin in 5% CO2 at 37° C.
(§3) Cell viability and apoptosis assays: Cell viability was determined using a CellTiter-Blue Cell Viability Assay (Promega, Madison, Wis.). The survival fractions were calculated after setting untreated control cells at 100%. An FITC Annexin V Apoptosis Detection Kit (BD PharMingen, San Diego, Calif.) was used to quantify apoptotic cells and necrotic cells, according to the manufacturer's instructions.
(§4) In order to investigate the cellular toxicity of 18 (XJB-lapachone), A549 nonsmall cell lung cancer cells were treated with various concentrations of XJB-lapachone for 24 h, and compared its effect with XJB-OMe (the mitochondrial targeting moiety) and unconjugated 3-hydroxy-β-lapachone (14). […] Furthermore, XJB-lapachone is also effective against other types of tumor cells, including PEO1 ovarian cancer cells, MDA-MB-231 breast cancer cells, and 983B melanoma cells (FIG. 3B). […] Tumor selectivity of β-lapachone, and whether the same is maintained after XJB conjugation, was examined. The cytotoxic effect of XJB-lapachone on A549 lung cancer and non-transformed human lung fibroblast cells IMR90 was determined by a cell growth/death assay.

[6] = test system: MDA-MB-231 breast cancer cells; experiment: as above; conditions: MDA-MB-231 cells (NQO1 deficient), indicated concentrations, 24 h (FIG. 3B)
Procedure: as §1, §2, §3, §4

[7] = test system: PEO1 ovarian cancer cells; experiment: as above; conditions: indicated concentrations, 24 h (FIG. 3B)
Procedure: as §1, §2, §3, §4

[8] = test system: A549 non-small cell lung cancer cells; experiment: as above; conditions: various concentrations, CellTiter-Blue (FIG. 3A)
Procedure: as §1, §2, §3, §4

Structure (SMILES): CC(C)C[C@@H](/C=C/[C@H](Cc1ccccc1)C(=O)N1CCC[C@H]1C(=O)N[C@H](C(=O)N[C@@H](CCCNC(=O)OCc1ccccc1)C(=O)NCCC(=O)OC1CC2=C(OC1(C)C)c1ccccc1C(=O)C2=O)C(C)C)NC(=O)OC(C)(C)C (stereo partly drawn) [XJB-lapachone, 2,2-Dimethyl-5,6-dioxo-3,4,5,6-tetrahydro-2H-benzo[h]chromen-3-yl 3-((S)-2-((S)-2-((S)-1-((2S,5S,E)-2-benzyl-5-((tert-butoxycarbonyl)amino)-7-methyloct-3-enoyl)pyrrolidine-2-carboxamido)-3-methylbutanamido)-5-(((benzyloxy)carbonyl)amino)pentanamido) propanoate]
- mitochondria morphology [1]: onion skin-like structures of mitochondria were observed
- induction of cell death in rho0 cells (cell viability) [2]: effective in inducing cell death in rho0 cells
- cell viability after four-hour exposure [3]: significantly reduced the viability
- mitochondrial ROS generation (MitoSox), dose and time dependence ([4]; MDA-MB-231 (NQO1 deficient) (FIG. 6)): Induces Mitochondrial ROS Generation in a Dose and Time Dependent Manner
- mitochondrial ROS levels at high concentration ([4]; MDA-MB-231, 2 h, high concentration (FIG. 7)): Increases Mitochondrial ROS
- mitochondrial ROS levels at low concentration ([4]; MDA-MB-231, 2 h, low concentration (FIG. 7)): Reduces Mitochondrial ROS Levels
- concentration at which ROS decreased ([4]; as described in the examples): ≤ 1 µM
- concentration that increases ROS production in the mitochondria ([4]; as described in the examples): > 1.0 µM and > 2.0 µM
- cell viability [5]: effective
- cell viability [6]: effective
- cell viability [7]: effective
- cell viability / cytotoxic effect ([8]; listed as XJB-Lapachone): superior compared to unconjugated β-lapachone
- cell viability / cytotoxic effect ([8]; listed as XJBLapachone): reduced cell viability in a dose dependent manner
